Data taken from patent US12565489B2, “Heterocyclyl pyrimidines and triazines as novel fungicides” (Bayer Aktiengesellschaft, priority 2020, dated 2026).

How the values were obtained:
[1] = Measurement of Log P values by HPLC on reversed phase columns (EEC directive 79/831 Annex V.A8); type: physicochemical; conditions: LogP
Description: Measurement of Log P values as provided herein was performed according to EEC directive 79/831 Annex V.A8 by HPLC (High Performance Liquid Chromatography) on reversed phase columns with the following methods: • ^[a] Log P value is determined by measurement of LC-UV, in an acidic range, with 0.1% formic acid in water and acetonitrile as eluent (linear gradient from 10% acetonitrile to 95% acetonitrile). • ^[b] Log P value is determined by measurement of LC-UV, in a neutral range, with 0.001 molar ammonium acetate solution in water and acetonitrile as eluent (linear gradient from 10% acetonitrile to 95% acetonitrile). • ^[c] Log P value is determined by measurement of LC-UV, in an acidic range, with 0.1% phosphoric acid and acetonitrile as eluent (linear gradient from 10% acetonitrile to 95% acetonitrile).
If more than one Log P value is available within the same method, all the values are given and separated by “+”.
Calibration was done with straight-chain alkan2-ones (with 3 to 16 carbon atoms) with known Log P values (measurement of Log P values using retention times with linear interpolation between successive alkanones). Lambda-max-values were determined using UV-spectra from 200 nm to 400 nm and the peak values of the chromatographic signals

[2] = system: Colletotrichum lindemuthianum; assay: Colletotrichum lindemuthianum in vitro cell test; type: cell-based; conditions: 144 h, 20 ppm of active ingredient, 6 days incubation, liquid culture, spectrometric measurement of mycelium growth, read-out: efficacy (inhibition of fungal growth)
Description: (§1) • Solvent: DMSO • Culture medium: 14.6 g anhydrous D-glucose (VWR), 7.1 g Mycological Peptone (Oxoid), 1.4 g granulated Yeast Extract (Merck), QSP 1 liter • Inoculum: spore suspension Fungicides were solubilized in DMSO and the solution used to prepare the required range of concentrations. […] A spore suspension of C. lindemuthianum was prepared and diluted to the desired spore density. Fungicides were evaluated for their ability to inhibit spores germination and mycelium growth in liquid culture assay. The compounds were added in the desired concentration to the culture medium with spores. After 6 days incubation, fungi-toxicity of compounds was determined by spectrometric measurement of mycelium growth. Inhibition of fungal growth was determined by comparing the absorbance values in wells containing the fungicides with the absorbance in control wells without fungicides.

Pyrenophora teres = Pyrenophora teres in vitro cell test; type: cell-based; conditions: 144 h, 20 ppm of active ingredient, 6 days incubation, liquid culture, spectrometric measurement of mycelium growth, read-out: efficacy (inhibition of fungal growth)
Description: as §1, with “of P. teres” for “of C. lindemuthianum”, “inhibit spore” for “inhibit spores”

Botrytis cinerea [3] = assay: Botrytis cinerea in vitro cell test; type: cell-based; conditions: 144 h, 20 ppm of active ingredient, 6 days incubation, liquid culture, spectrometric measurement of mycelium growth, read-out: efficacy (inhibition of fungal growth)
Description: (§2) • Solvent: DMSO • Culture medium: 1 g KH2PO4 (VWR), 1 g K2HPO4 (VWR), 0.5 g Urea (VWR), 3 g KNO3 (Prolabo), 10 g saccharose (VWR), 0.5 g MgSO4, 7H2O (Sigma), 0.07 g CaCl2, 2H2O (Prolabo), 0.2 mg MnSO4, H2O (Sigma), 0.6 mg CuSO4, 5H2O (Sigma), 7.9 mg ZnSO4, 7H2O (Sigma), 0.1 mg H3BO3 (Merck), 0.14 mg NaMoO4, 2H2O (Sigma), 2 mg thiamine (Sigma), 0.1 mg biotine (VWR), 4 mg FeSO4, 7H2O (Sigma), QSP 1 liter • Inoculum: spore suspension Fungicides were solubilized in DMSO and the solution used to prepare the required range of concentrations. […] A spore suspension of B. cinerea was prepared and diluted to the desired spore density. Fungicides were evaluated for their ability to inhibit spore germination and mycelium growth in liquid culture assay. The compounds were added in the desired concentration to the culture medium with spores. After 6 days incubation, fungi-toxicity of compounds was determined by spectrometric measurement of mycelium growth. Inhibition of fungal growth was determined by comparing the absorbance values in wells containing the fungicides with the absorbance in control wells without fungicides.

Septoria tritici = Septoria tritici in vitro cell test; type: cell-based; conditions: Zymoseptoria tritici, 168 h; 20 ppm of active ingredient; 7 days incubation; liquid culture, spectrometric measurement of mycelium growth; read-out: efficacy (inhibition of fungal growth)
Description: as §2, with “S. tritici” for “B. cinerea”, “After 6 days incubation, fungi-toxicity of compounds was determined by spectrometric measurement of mycelium growth.” left out

Alternaria brassicae = assay: In vivo preventive test on Alternaria brassicae (leaf spot on radish or cabbage); conditions: 144 h, 500 ppm of active ingredient, preventive spray on young radish or cabbage plants, evaluated 6 days after inoculation, read-out: efficacy
Description: (§3) The active ingredients were made soluble and homogenized in a mixture of Dimethyl sulfoxide/Acetone//Tween®80 and then diluted in water to the desired concentration. The young plants of radish or cabbage were treated by spraying the active ingredient prepared as described above. Control plants were treated only with an aqueous solution of Acetone/Dimethyl sulfoxide/Tween® 80. After 24 hours, the plants were contaminated by spraying the leaves with an aqueous suspension of Alternaria brassicae spores.

Botrytis cinerea [4] = assay: In vivo preventive test on Botrytis cinerea (grey mould); conditions: 500 ppm of active ingredient, preventive spray on young gherkin or cabbage plants, evaluated 4 to 5 days after inoculation, read-out: efficacy
Description: as §3, with “gherkin” for “radish”, “Botrytis cinerea” for “Alternaria brassicae”

Sphaerotheca fuliginea = assay: In vivo preventive test on Sphaerotheca fuliginea (powdery mildew on cucurbits); conditions: Podosphaera fuliginea, 192 h; 500 ppm of active ingredient; preventive spray on young gherkin plants; evaluated 8 days after inoculation; read-out: efficacy
Description: as §3, with “gherkin” for “radish or cabbage”, “Sphaerotheca fuliginea” for “Alternaria brassicae”

Alternaria alternata = Alternaria alternata in vitro cell test; type: cell-based; conditions: 120 h, 20 ppm of active ingredient, 5 days incubation, liquid culture, spectrometric measurement of mycelium growth, read-out: efficacy (inhibition of fungal growth)
Description: as §1, with “of A. alternata” for “of C. lindemuthianum”, “inhibit spore” for “inhibit spores”, “After 5” for “After 6”

[5] = system: Colletotrichum lindemuthianum; assay: In vivo preventive test on Colletotrichum lindemuthianum (leaf spot on bean); conditions: 168 h, 500 ppm of active ingredient, preventive spray on young bean plants, evaluated 7 days after inoculation, read-out: efficacy
Description: as §3, with “bean” for “radish or cabbage”, “Colletotrichum lindemuthianum” for “Alternaria brassicae”

Pyricularia oryzae = assay: microbe, parasite or virus in culture; type: cell-based; conditions: 120 h, read-out: efficacy (inhibition of fungal growth)

SMILES | chromatographic logP [1] | inhibition at 20 ppm [2] [%] | inhibition at 20 ppm (Pyrenophora teres) [%] | inhibition at 20 ppm (Botrytis cinerea [3]) [%] | inhibition at 20 ppm (Septoria tritici) [%] | pest or weed control at 500 ppm (Alternaria brassicae) [%] | pest or weed control at 500 ppm (Botrytis cinerea [4]) [%] | pest or weed control at 500 ppm (Sphaerotheca fuliginea) [%] | inhibition at 20 ppm (Alternaria alternata) [%] | pest or weed control at 500 ppm [5] [%] | inhibition at 20 ppm (Pyricularia oryzae) [%]
CSc1ncc(Oc2cccc(C(F)(F)F)c2)c(C2=NOC[C@@H](Cc3ccc(C)cc3Cl)N2)n1 (racemic) [Compound I-020] | 5.14 | 90 to 100 | 90 to 100 | 90 to 100 | 70 to 79 | 90 to 100 | 90 to 100 | 90 to 100 |  |  | 
Cc1ncc(Oc2cccc(C(F)(F)F)c2)c(C2=NOC[C@@H](Cc3csc(C(F)(F)F)c3)N2)n1 (racemic) [Compound I-015] | 4.17 | 90 to 100 | 90 to 100 | 90 to 100 |  | 80 to 89 | 70 to 79 | 80 to 89 | 70 to 79 | 90 to 100 | 
Cc1ccc(CC2CON=C(c3nc(C)ncc3Oc3cccc([N+](=O)[O-])c3)N2)c(C)c1 (racemic) [Compound I-003, (5RS)-5-(2,4-dimethylbenzyl)-3-[2-methyl-5-(3-nitro-phenoxy)pyrimidin-4-yl]-5,6-dihydro-4H-1,2,4-oxadiazine] | 3.78 | 90 to 100 | 90 to 100 | 90 to 100 | 90 to 100 | 90 to 100 | 90 to 100 | 80 to 89 | 90 to 100 |  | 90 to 100
COc1ccc(C[C@@H]2CON=C(c3nc(C)ncc3Oc3cccc(C(F)(F)F)c3)N2)c(Cl)c1 (racemic) [Compound I-012] | 4.08 |  | 90 to 100 | 90 to 100 |  | 90 to 100 | 90 to 100 | 90 to 100 |  | 90 to 100 | 
Cc1ncc(Oc2cccc(Cl)c2)c(C2=NOCC(c3ccc4c(c3)CCC4)N2)n1 (racemic) [Compound I-014, (5RS)-3-[5-(3-chlorophenoxy)-2-methyl-pyrimidin-4-yl]-5-indan-5-yl-5,6-dihydro-4H-1,2,4-oxadiazine] | 4.05 | 90 to 100 | 90 to 100 | 90 to 100 | 90 to 100 | 90 to 100 | 90 to 100 | 90 to 100 | 90 to 100 |  | 90 to 100
Cc1ncc(Oc2cccc(Cl)c2)c(C2=NOC[C@@H](c3ccc4c(c3)OCCO4)N2)n1 (racemic) [Compound I-031] | 3.04 | 90 to 100 | 90 to 100 | 90 to 100 |  |  |  |  | 90 to 100 |  | 90 to 100
Cc1ncc(Oc2cccc(C(F)(F)F)c2)c(C2=NOC[C@@H](Cc3ccc(OC(F)F)cc3Cl)N2)n1 (racemic) [Compound I-027] | 4.15 |  | 90 to 100 | 90 to 100 | 90 to 100 | 90 to 100 | 90 to 100 | 90 to 100 | 90 to 100 | 90 to 100 | 
Cc1ncc(Oc2cccc(Cl)c2)c(C2=NO[C@@H](F)[C@@H](c3ccc(Cl)cc3)N2)n1 (racemic) [Compound I-028] | 3.79 |  | 90 to 100 | 90 to 100 | 90 to 100 |  |  |  | 90 to 100 |  | 90 to 100
Cc1ccc(C[C@@H]2CON=C(c3nc(C)ncc3Oc3cccc(OC(F)F)c3)N2)c(C)c1 (racemic) [Compound I-007] | 3.94 | 90 to 100 | 90 to 100 | 90 to 100 |  | 90 to 100 | 90 to 100 | 90 to 100 | 70 to 79 | 90 to 100 | 
